Test systems include SN12C; SW-620; IGROV-1; NCI-H522; DMS-114; K562; HCT-116; XF498; UACC-257; SF-268; HOP-92; SK-OV-3; A498; SK-MEL-2; DMS-273; SR; M14; T47D; PC-3; BT-549.
Holding throughout (test): NCI-60 cell line screen, 48 h

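All cell lines were grown in 96-well plates and treated with compound for 48 hours. Here, GI50 denotes the concentration required for 50% inhibition of growth.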 Calls of active or inactive are those of the source. Cut-off read from the data, not from the text of the source: active = GI50 up to about 1.1 µM and inactive = higher. A value given as a limit tells only on which side of the number the result lay.

`O=NN(CCF)C(=O)NC1CCSCC1`: the GI50 with SN12C is > 100 µM (inactive); in the experiment on SW-620 it was > 100 µM (inactive); with IGROV-1 it was > 100 µM (inactive); in the experiment on NCI-H522, > 100 µM (inactive); with DMS-114, > 100 µM (inactive); in the experiment with K562 it was > 31.6 µM (inactive). Moreover, the GI50 is > 100 µM (inactive) with HCT-116; < 0.01 µM (active) with XF498; > 100 µM (inactive) in the experiment with UACC-257; > 100 µM (inactive) in the experiment with SF-268; > 100 µM (inactive) in the experiment on HOP-92; > 100 µM (inactive) in the experiment with SK-OV-3. The GI50 with A498, in the experiment with SK-MEL-2 and in the experiment with DMS-273 was > 100 µM (inactive) each time.
Take `CN(CCO)c1nc(=O)c2c([nH]1)CCC2`: the GI50 with SN12C, with SW-620, in the experiment on IGROV-1, in the experiment with NCI-H522, in the experiment with SR and in the experiment with DMS-114 was > 100 µM (inactive) each time. Moreover, the GI50 in the experiment with K562, in the experiment with HCT-116, in the experiment on XF498, in the experiment on UACC-257, with SF-268 and with HOP-92 was > 100 µM (inactive) each time. The GI50 with M14, with SK-OV-3, in the experiment on SK-MEL-2 and in the experiment with DMS-273 was > 100 µM (inactive) throughout.
On to `CCCCN(CCCC)C(=O)C(=O)C(C#N)c1ccc(C)cc1` (stereo not given), for which the GI50 with SN12C, in the experiment on SW-620, in the experiment with IGROV-1, in the experiment with NCI-H522, in the experiment with DMS-114 and in the experiment on K562 was > 100 µM (inactive) each time. The GI50 in the experiment on HCT-116, in the experiment with XF498, in the experiment on UACC-257, in the experiment on SF-268, with HOP-92 and in the experiment on M14 was > 100 µM (inactive) throughout. Moreover, the GI50 with A498, in the experiment with SK-MEL-2 and in the experiment with DMS-273 was > 100 µM (inactive) each time.
Regarding `COc1cc(/C=C/C(=O)Oc2ccc(NC(C)=O)cc2)ccc1C(=O)OCc1ccccc1`, the GI50 in the experiment on SN12C was > 92.5 µM (inactive); in the experiment with SW-620, > 100 µM (inactive); in the experiment on IGROV-1, 67.5 µM (inactive); in the experiment on NCI-H522 it was > 85.9 µM (inactive); in the experiment on SR it was > 100 µM (inactive); with DMS-114 it was > 90.8 µM (inactive). For the same compound, the GI50 with K562 is > 100 µM (inactive); in the experiment with HCT-116 it was > 100 µM (inactive); with T47D, > 100 µM (inactive); in the experiment on XF498, 25.6 µM (inactive); in the experiment with PC-3, > 100 µM (inactive); in the experiment on UACC-257 it was > 100 µM (inactive). In addition, the GI50 in the experiment on SF-268 is 56.6 µM (inactive); in the experiment with HOP-92, 74.3 µM (inactive); with M14, > 100 µM (inactive); in the experiment with SK-OV-3, 48.4 µM (inactive); in the experiment with A498 it was 60.3 µM (inactive); in the experiment on BT-549 it was > 100 µM (inactive). The GI50 is 53.1 µM (inactive) in the experiment with SK-MEL-2 and 78 µM (inactive) in the experiment on DMS-273.
For the compound `CC(=O)O[C@H]1CC[C@@]2(C)C(=CC[C@@H]3C2CC[C@]2(C)C(=O)NC(=O)CC32)C1` (stereo not given in full), the GI50 in the experiment with SN12C is > 100 µM (inactive); in the experiment on SW-620 it was > 56.6 µM (inactive); in the experiment on IGROV-1, > 100 µM (inactive); with NCI-H522, 27.9 µM (inactive); in the experiment on DMS-114, > 79.6 µM (inactive); with K562, > 56 µM (inactive). For the same compound, the GI50 in the experiment on HCT-116, in the experiment on XF498, with UACC-257, in the experiment with SF-268, with HOP-92 and with M14 was > 100 µM (inactive) throughout. Further, the GI50 in the experiment on SK-OV-3 was > 100 µM (inactive); in the experiment on A498, > 100 µM (inactive); in the experiment on SK-MEL-2, > 100 µM (inactive); in the experiment with DMS-273 it was 62.7 µM (inactive).
For `C=C/C=C/NC(=O)OCc1ccccc1`, the GI50 is > 100 µM (inactive) with SN12C; > 100 µM (inactive) in the experiment on SW-620; > 100 µM (inactive) with IGROV-1; > 100 µM (inactive) in the experiment on NCI-H522; 98.9 µM (inactive) with SR; > 100 µM (inactive) in the experiment on DMS-114. Also, the GI50 with K562, in the experiment with HCT-116, in the experiment on XF498, with UACC-257, in the experiment on SF-268 and in the experiment with HOP-92 was > 100 µM (inactive) each time. Also, the GI50 in the experiment on M14, in the experiment with SK-OV-3, with SK-MEL-2 and with DMS-273 was > 100 µM (inactive) throughout.
As to `CCCCc1ccc(-n2c3nc(=O)n(C)c(=O)c-3nc3ccccc32)cc1`, the GI50 with SN12C is 7.35 µM (inactive); in the experiment on SW-620, 6.18 µM (inactive); with IGROV-1, 13.6 µM (inactive); with NCI-H522 it was 7.6 µM (inactive); in the experiment on DMS-114, 4.7 µM (inactive); with K562, 12.4 µM (inactive). Besides, the GI50 in the experiment with HCT-116 is 12.3 µM (inactive); in the experiment on XF498, 18.2 µM (inactive); with UACC-257, 4.01 µM (inactive); in the experiment with SF-268, 10.1 µM (inactive); in the experiment with M14, 7.89 µM (inactive); in the experiment with SK-OV-3 it was 37.7 µM (inactive). For the same compound, the GI50 is 18.7 µM (inactive) in the experiment on A498, 10.9 µM (inactive) with SK-MEL-2 and 10.3 µM (inactive) in the experiment on DMS-273.
Take `[O-][n+]1ccccc1S` [PYRITHIONE ZINC]: the GI50 in the experiment on SN12C was 1.87 µM (inactive); with SW-620, 0.161 µM (active); in the experiment with IGROV-1, 1.14 µM (inactive); in the experiment on NCI-H522, 0.107 µM (active); in the experiment with SR, 0.168 µM (active); in the experiment on DMS-114 it was 0.419 µM (active). Further, the GI50 is 0.107 µM (active) in the experiment with K562; 0.5 µM (active) with HCT-116; 0.226 µM (active) in the experiment on XF498; 2.09 µM (inactive) in the experiment with UACC-257; 1.03 µM (active) with SF-268; 3.24 µM (inactive) with HOP-92. Further, the GI50 in the experiment on M14 was 1.25 µM (inactive); in the experiment with SK-OV-3 it was 17.4 µM (inactive); with A498, 0.796 µM (active); in the experiment with SK-MEL-2, 1.49 µM (inactive); in the experiment on DMS-273 it was 0.366 µM (active).
